Measurements: publication PMC6813354, “Bases of Bacterial Sodium Channel Selectivity Among Organic Cations” (Scientific Reports, 2019)

Biological target: T1, NaChBac (Halalkalibacterium halodurans, UniProt Q9KCR8)
T1 construct: gene BH1501; NaChBac in pTracer-CMV2, transiently expressed in tsA 201 cells; homotetramer
T1 sequence (Q9KCR8 1-274): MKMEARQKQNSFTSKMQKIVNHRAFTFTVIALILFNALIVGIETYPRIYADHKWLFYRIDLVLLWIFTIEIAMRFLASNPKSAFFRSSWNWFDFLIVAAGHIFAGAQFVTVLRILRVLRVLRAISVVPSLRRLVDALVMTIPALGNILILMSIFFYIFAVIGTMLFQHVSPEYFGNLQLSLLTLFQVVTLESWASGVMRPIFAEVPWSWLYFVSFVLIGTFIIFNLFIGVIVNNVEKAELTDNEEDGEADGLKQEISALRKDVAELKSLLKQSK
Test: whole-cell patch clamp
Type: cell-based
Settings: 142.5 mM external replacing Na+; pH 7.4; room temperature; weak pore block of Na+ current

Row | SMILES | whole-cell patch clamp
1 | CN [MA^+, methylammonium] | MA^+ reduces the sodium current amplitude more effectively than TMA^+ in WT and E191D mutant
2 | C[N+](C)(C)C [TMA^+, tetramethylammonium] | different blocking effects of TMA^+ (purple) and MA^+ (orange), relative to Na^+ controls
